Patent US20260015325A1, “ALKOXY HETEROARYL- CARBOXAMIDE OR THIOAMIDE COMPOUNDS” (SYNGENTA CROP PROTECTION AG, priority 2022, published 2026)

Columns and labels:
Type in all cases: in vivo
[1] = tested on: Plutella xylostella (Diamond Back Moth); assay: Plutella xylostella (Diamond Back Moth), artificial diet; details: 192 h, application rate of 200 ppm, eggs on treated artificial diet, 8 days after infestation, read-out: effect in at least one of the two categories (mortality or growth inhibition)
Method: Example B9: Plutella xylostella (Diamond Back Moth)
24-well microtiter plates with artificial diet were treated with aqueous test solutions prepared from 10′000 ppm DMSO stock solutions by pipetting. After drying, Plutella eggs were pipetted through a plastic stencil onto a gel blotting paper and the plate was closed with it. The samples were assessed for mortality and growth inhibition in comparison to untreated samples 8 days after infestation.

[2] = tested on: Frankliniella occidentalis (Western Flower Thrips); assay: Frankliniella occidentalis (Western Flower Thrips): feeding/contact activity, sunflower leaf discs; details: foliar, 168 h, application rate of 200 ppm, mixed ages on sprayed sunflower leaf discs, 7 days after infestation
Method: Example B5: Frankliniella occidentalis (Western Flower Thrips): Feeding/Contact Activity
Sunflower leaf discs were placed on agar in 24-well microtiter plates and sprayed with aqueous test solutions prepared from […] stock solutions. After drying the leaf discs were infested with a Frankliniella population of mixed ages. The samples were assessed for mortality 7 days after infestation.

[3] = tested on: Tetranychus urticae (Two-Spotted Spider Mite); assay: whole plant or invertebrate; details: foliar, 192 h, application rate of 200 ppm, mixed population (mobile stages) on sprayed bean leaf discs, 8 days after infestation, read-out: mortality
Method: Example B11: Tetranychus urticae (Two-Spotted Spider Mite): Feeding/Contact Activity
Bean leaf discs on agar in 24-well microtiter plates were sprayed with aqueous test solutions prepared from 10′000 ppm DMSO stock solutions. After drying the leaf discs were infested with a mite population of mixed ages. The samples were assessed for mortality on mixed population (mobile stages) 8 days after infestation.

[4] = tested on: Myzus persicae (Green Peach Aphid); assay: Myzus persicae (Green Peach Aphid): feeding/contact activity, sunflower leaf discs; details: foliar, 144 h, application rate of 200 ppm, mixed ages on sprayed sunflower leaf discs, 6 days after infestation, read-out: mortality
Method: Example B6: Myzus persicae (Green Peach Aphid): Feeding/Contact Activity
Sunflower leaf discs were placed onto agar in a 24-well microtiter plate and sprayed with aqueous test solutions prepared from 10′000 ppm DMSO stock solutions. After drying, the leaf discs were infested with an aphid population of mixed ages. The samples were assessed for mortality 6 days after infestation.

[5] = tested on: Myzus persicae (Green Peach Aphid); assay: Myzus persicae (Green Peach Aphid): systemic activity, pea seedlings; details: 144 h, test rate of 24 ppm, systemic, roots of infested pea seedlings in test solution, 6 days, read-out: mortality
Method: Example B7: Myzus persicae (Green Peach Aphid). Systemic Activity
Roots of pea seedlings infested with an aphid population of mixed ages were placed directly into aqueous test solutions prepared from 10′000 DMSO stock solutions. The samples were assessed for mortality 6 days after placing seedlings into test solutions.

[6] = tested on: Myzus persicae (Green Peach Aphid); assay: Myzus persicae (Green Peach Aphid): intrinsic activity, sucrose solution; details: 120 h, test rate of 12 ppm, intrinsic, mixed with sucrose solution under Parafilm, 5 days after infestation, read-out: mortality
In short: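 Compounds from 10′000 ppm DMSO stocks mixed with sucrose solution in wells sealed with Parafilm; aphid-infested pea seedlings placed on the Parafilm and the assembly inverted so aphids feed through the membrane. Mortality assessed 5 days after infestation.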

[7] = tested on: Euschistus heros (Neotropical Brown Stink Bug); assay: Euschistus heros (Neotropical Brown Stink Bug), soybean leaves; details: 120 h, application rate of 200 ppm, N2 nymphs on sprayed soybean leaves, 5 days after infestation, read-out: effect in at least one of the two categories (mortality or growth inhibition)
Method: Example B4: Euschistus heros (Neotropical Brown Stink Bug)
Soybean leaves on agar in 24-well microtiter plates were sprayed with aqueous test solutions prepared from 10′000 ppm DMSO stock solutions. After drying the leaves were infested with N2 nymphs. The samples were assessed for mortality and growth inhibition in comparison to untreated samples 5 days after infestation.

[8] = tested on: Bemisia tabaci (Cotton White Fly); assay: Bemisia tabaci (Cotton White Fly): feeding/contact activity, cotton leaf discs; details: foliar, 144 h, application rate of 200 ppm, adult white flies on sprayed cotton leaf discs, 6 days after incubation, read-out: mortality
Method: Example B1: Bemisia tabaci (Cotton White Fly): Feeding/Contact Activity
Cotton leaf discs were placed on agar in 24-well microtiter plates and sprayed with aqueous test solutions prepared from 10′000 ppm DMSO stock solutions. After drying the leaf discs were infested with adult white flies. The samples were checked for mortality 6 days after incubation.

Cc1ncc(OC[C@H](C)NS(=O)(=O)C(F)(F)F)cc1C(=O)NOCC1CC1 [Compound P-41, N-(cyclopropylmethoxy)-2-methyl-5-[(2S)-2-(trifluoromethylsulfonylamino)propoxy]pyridine-3-carboxamide]
≥ 80%: percent effect (mortality or growth inhibition) at 200 ppm [1]

Cc1ncc(OC[C@H](C)NS(=O)(=O)C(F)(F)F)cc1C(=O)NC(C)c1ncnn1-c1ccc(C#N)cn1 (stereo partly drawn) [Compound P-27, N-[1-[2-(5-cyano-2-pyridyl)-1,2,4-triazol-3-yl]ethyl]-2-methyl-5-[(2S)-2-(trifluoromethylsulfonylamino)propoxy]pyridine-3-carboxamide]
≥ 80%: percent effect (mortality or growth inhibition) at 200 ppm [1]

C[C@@H](COc1cnc(Cl)c(C(=O)NC2(C#N)CC2)c1)N(C(=O)OC(C)(C)C)S(=O)(=O)C(F)(F)F [Compound P-6, tert-butyl N-[(1S)-2-[[6-chloro-5-[(1-cyanocyclopropyl)carbamoyl]-3-pyridyl]oxy]-1-methyl-ethyl]-N-(trifluoromethylsulfonyl)carbamate]
≥ 80%: mortality at 200 ppm [2] | mortality at 200 ppm [3] | mortality at 200 ppm [4] | mortality at 24 ppm [5] | mortality at 12 ppm [6] | percent effect (mortality or growth inhibition) at 200 ppm [7] | mortality at 200 ppm [8]

CC(=O)N([C@@H](C)COc1cnc(Cl)c(C(=O)NC2CC2)c1)S(=O)(=O)C(F)(F)F [Compound P-43, 5-[(2S)-2-[acetyl(trifluoromethylsulfonyl)amino]propoxy]-2-chloro-N-cyclopropyl-pyridine-3-carboxamide]
≥ 80%: mortality at 200 ppm [2] | mortality at 200 ppm [3] | mortality at 200 ppm [4] | mortality at 24 ppm [5] | mortality at 12 ppm [6] | percent effect (mortality or growth inhibition) at 200 ppm [7] | mortality at 200 ppm [8]

C[C@@H](COc1cnc(Cl)c(C(=O)NC2CC2)c1)N(C(=O)OC(C)(C)C)S(=O)(=O)C(F)(F)F [Compound P-42, tert-butyl N-[(1S)-2-[[6-chloro-5-(cyclopropylcarbamoyl)-3-pyridyl]oxy]-1-methyl-ethyl]-N-(trifluoromethylsulfonyl)carbamate]
≥ 80%: mortality at 200 ppm [2] | mortality at 200 ppm [3] | mortality at 200 ppm [4] | mortality at 12 ppm [6] | percent effect (mortality or growth inhibition) at 200 ppm [7]

C[C@@H](COc1cnc(Cl)c(C(=O)NCC(F)(F)F)c1)NS(=O)(=O)C(F)(F)F [Compound P-3, 2-chloro-N-(2,2,2-trifluoroethyl)-5-[(2S)-2-(trifluoromethylsulfonylamino)propoxy]pyridine-3-carboxamide]
≥ 80%: mortality at 200 ppm [2] | mortality at 200 ppm [3] | mortality at 200 ppm [4] | mortality at 12 ppm [6] | percent effect (mortality or growth inhibition) at 200 ppm [7] | mortality at 200 ppm [8]

Cc1nc(C(C)NC(=O)c2cc(OC[C@H](C)NS(=O)(=O)C(F)(F)F)cnc2C)no1 (stereo partly drawn) [Compound P-38, 2-methyl-N-[1-(5-methyl-1,2,4-oxadiazol-3-yl)ethyl]-5-[(2S)-2-(trifluoromethylsulfonylamino)propoxy]pyridine-3-carboxamide]
≥ 80%: percent effect (mortality or growth inhibition) at 200 ppm [1]

C[C@@H](COc1cnc(Cl)c(C(=O)Nc2ccc(Cl)cc2F)c1)NS(=O)(=O)C(F)(F)F [Compound P-25, 2-chloro-N-(4-chloro-2-fluoro-phenyl)-5-[(2S)-2-(trifluoromethylsulfonylamino)propoxy]pyridine-3-carboxamide]
≥ 80%: mortality at 200 ppm [3] | percent effect (mortality or growth inhibition) at 200 ppm [1]
